Experimental data from publication PMC3303619, “In Situ Absorption in Rat Intestinal Tract of Solid Dispersion of Annonaceous Acetogenins” (Gastroenterology Research and Practice, 2012).
Values after ≈ are worked out from the molar mass of the structure shown.

Experiments:
[1] = tested on: duodenum, jejunum, ileum, and colon segment; assay: SPIP in different intestinal segments; assay type: in vivo, Sprague-Dawley rats; conditions: 300 μg/mL, values are P app × 10^3, mean ± SD, n = 6
From the text: The study followed the method described in Li et al. and Dahan and Amidon. Each 10 cm long intestinal segment was isolated as follows: duodenum segment beginning from 1 cm distal to pylorus, jejunum segment beginning from 15 cm away from pylorus, ileum segment beginning at the site 20 cm upwards caecum, while segment colon beginning at the site 2 cm distal to caecum. The above segments were carefully cannulated and ligated with both the ends. Then, each segment was perfused with solution containing different mass of ACGs.
(§1) The effective permeability (K a, P app) of the drug disappearing from the intestinal lumen during the intestinal perfusion was calculated by the steady-state equation: (1) Ka =(1−CoutQout/CinQin)Q/VPapp=[− Qin·ln (CoutQout/CinQin)]/2πrL where the radius of the gut lumen was represented by r, its length by L, and the perfusate flow rate by Q (mL/min). V presents the volume of the tested intestinal. The fraction C out/C in represents the concentration of the drμg leaving the perfused segment (C out) normalized to the concentration entering the segment (C in). The C out values were corrected for net water flux by the gravimetric method.
(§2) Once the intestinal segment reached steady state, subsequent values of C out/C in were used to calculate P app. P app represents the permeability of the compound (cm/s) as determined by the disappearance of the compound from the intestinal lumen. Steady state was assumed to be reached when C out/C in reached a constant value, as determined by direct observation of the data.

[2] = Stability of ACGs in K-R buffer solution; assay type: physicochemical; conditions: ACGs-SD in K-R buffer, 37°C, n = 3
Description: Exact amount of ACGs-SD was dissolved in K-R buffer solution at 37°C in water bath. Chermolin-1, annonacin, squamocin, and annonin-VI were determined at 0, 30, 60, 90, and 120 min to analysis the stability of ACGs in K-R buffer solution.

[3] = Stability of sample solution during storing and preparation (freeze-thaw, room temperature, stock solution); assay type: physicochemical; conditions: for Accuracy (mean ± SD)%, Freeze-thaw (three cycles): three freeze (−20°C) and thaw (room temperature) cycles, compared to nominal concentration
Description: The stability of sample solution was also tested at room temperature and 4°C, respectively, for 24 h. For freeze-thaw stability testing, the samples were determined after three freeze (−20°C) and thaw (room temperature) cycles, and the concentration was compared to their nominal concentration. For the short-term stability, the samples (three replicates at each QC concentration) were extracted and placed at room temperature for 24 h and then injected into the HPLC system for analysis.
Stock solutions of ACGs were stable for at least 30 days when stored at 4°C. No significant change was found after three freeze-thaw cycles and stored at room temperature for 24 h (Table 1).

intestinal loop in rats = assay: Single-pass intestinal perfusion (SPIP) in rats at different perfusate concentrations; assay type: in vivo, Sprague-Dawley rats; conditions: values are P app × 10^3, mean ± SD, n = 6
Description: We used male Sprague-Dawley rats weighing 250 ± 20 g for all perfusion studies. The drug solution was prepared by dispersing the ACGs-SD in the K-R buffer solution and installed in the cylinder, which was incubated in at 37°C water bath to maintain temperature.
The in situ SPIP experiment was conducted according to the previously published reports. Firstly, six male Sprague-Dawley rats were placed in respective cages and fasted overnight before the experiment with free access to water. Rats were anesthetized with an intraperitoneal injection of pentobarbital sodium (40 mg/Kg body weight, i.p. injection), restrained in a supine position, and kept at a body temperature of 37°C using infrared lamps.
Bile duct was ligated and the intestinal content was immediately washed away with 37°C saline solution at a flow rate of 5 mL/min, by cannulating polyethylene tubings (3.2 mm diameter) using a peristaltic pump (BT00-100 M, Baoding Longer Precision Pump Co., Ltd., China). The isolated segment, duodenum, jejunum, ileum, and colon were rinsed with physiological saline to clean any residual debris until the out flowing became colorless. Then, the intestinal loop was made by ligating both ends of the intestinal loop from 4 cm below the bile duct opening to a segment above the ileocecum of small intestine of anesthetized rats. Care was taken to handle the small intestine gently in order to maintain an intact blood supply. The whole surgical area was covered with a piece of sterilized gauze wetted with physiological saline solution.
ACGs-SD was dissolved in K-R buffer solution (0.35 g KCl, 1.37 g NaHCO3, 7.8 g NaCl, 0.22 g NaH2PO4, 0.02 g MgCl2, and glucose in 1.48 g/1000 mL purified water, pH 6.5) at a concentration of 200 μg/mL, 300 μg/mL, 500 μg/mL of ACGs, and the solution was administered to the loop via the polyethylene tubing inserted into the loop. At the start of the study, the perfusion buffer containing sample solution was first perfused at a flow rate of 5 mL/min to ensure filling the segment rapidly, and the time was set to zero with the immediate start of the perfusion and the solution volume in circulation was recorded as the 0 min volume. After 10 min, when steady-state condition was achieved, the flow rate was adjusted to 0.2 mL/min, and the outlet perfused samples were collected at time intervals (5, 10, 15, 30, 60, 90, 120 min) for 2 h. During 2 h perfusion period, at each time period, assemble the outlet solution. At the end of the experiment, the length of perfused intestinal segment was measured without stretching.
as §1, §2

[4] = Solubility studies in distilled water; assay type: physicochemical; conditions: 37 °C, thermodynamic from solid, component from ACGs solid dispersion (PEG 4000), 37 ± 0.5°C
Description: Solubility studies were conducted by placing an excess amount of ACGs (approximately 15 mg) and ACG-solid dispersion in 10 mL distilled water, and the mixture was heated at 37 ± 0.5°C in a water bath to facilitate the solubilization using a vortex mixer. Mixtures were equilibrated at 37 ± 0.5°C for 72 h in a water bath. The equilibrated samples were centrifuged at 3000 rpm for 15 min to remove the undissolved material. The supernatant was determined by HPLC.

T24 bladder cancer cells = tested on: T24 bladder cancer cells; set-up: method as in PMID 16154156; conditions: cytotoxicity in a Bax- and caspase-3-related pathway; cited from earlier work
complex I = tested on: complex I; set-up: method as in PMID 8037664; conditions: mammalian mitochondria; steady-state and nonsteady-state conditions; cited from earlier work
K562 cells = tested on: K562 cells; set-up: method as in PMID 16310807; conditions: cited from earlier work
[5] = ACGs-SD perfusate concentration 200 μg · mL^−1
[6] = ACGs-SD perfusate concentration 300 μg · mL^−1
[7] = ACGs-SD perfusate concentration 500 μg · mL^−1

Row | SMILES | P app × 10^3 ([1]; Duodenum) [cm · s^−1] | P app × 10^3 ([1]; Ileum) [cm · s^−1] | P app × 10^3 ([1]; Jejunum) [cm · s^−1] | P app × 10^3 ([1]; colon) [cm · s^−1] | Stability in K-R buffer solution, remaining ([2]; time 0 h) [%] | Stability in K-R buffer solution, remaining ([2]; time 0.5 h) [%] | Stability in K-R buffer solution, remaining ([2]; time 1 h) [%] | Stability in K-R buffer solution, remaining ([2]; time 2 h) [%] | Accuracy (mean ± SD)%, Samples at room temperature for 24 h [3] [%] | Accuracy (mean ± SD)%, Freeze-thaw (three cycles) [3] [%] | P app × 10^3 (intestinal loop in rats; [5]) [cm · s^−1] | P app × 10^3 (intestinal loop in rats; [6]) [cm · s^−1] | P app × 10^3 (intestinal loop in rats; [7]) [cm · s^−1] | solubility at 72 h [4] [µg/mL] | Effect on cell cycle of T24 bladder cancer cells (T24 bladder cancer cells) | Effect on proton pumping function of complex I (complex I) | Effect on proliferation of K562 cells (K562 cells)
1 | CCCCCCCCCCCC[C@@H](O)[C@H]1CC[C@H]([C@H](O)CCCC[C@H](O)CCCCC[C@@H](O)CC2=CC(C)OC2=O)O1 (some centres unmarked) [Annonacin, annonacin] | 1.36 ± 0.34 | 1.17 ± 0.49 | 1.38 ± 0.82 | 0.95 ± 0.45 | 100 | 98.63 | 98.59 | 96.16 | 96.3 ± 2.1 | 96.0 ± 1.0 | 1.29 ± 0.12 | 0.92 ± 0.23 | 0.69 ± 0.31 | 213 (≈ 357 µM) | arrest T24 bladder cancer cells at the G1 phase | – | –
2 | CCCCCCCCCC[C@H](O)[C@H]1CC[C@H]([C@H]2CC[C@H]([C@H](O)CCCCCCCCCC[C@@H](O)CC3=C[C@H](C)OC3=O)O2)O1 [Annonin-VI, annonin-VI] | 2.28 ± 0.29 | 1.26 ± 0.30 | 1.87 ± 0.29 | 1.10 ± 0.45 | 100 | 95.64 | 99.59 | – | 98.3 ± 2.1 | 99.3 ± 5.0 | 0.75 ± 0.37 | 0.75 ± 0.21 | 0.79 ± 0.30 | 250 (≈ 401 µM) | – | inhibited the proton pumping function of complex I | –
3 | CCCCCC[C@H](O)CCC[C@H](O)[C@H]1CC[C@H]([C@H]2CC[C@H]([C@H](O)CCCCCCCCCCCCC3=C[C@H](C)OC3=O)O2)O1 [Squamocin, squamocin] | 1.24 ± 0.27 | 1.14 ± 0.31 | 1.30 ± 0.27 | 1.03 ± 0.19 | 100 | 100.51 | 99.86 | 98.58 | 101.3 ± 6.2 | 101.6 ± 4.2 | 0.96 ± 0.28 | 0.96 ± 0.27 | 0.93 ± 0.32 | 1080 (≈ 1740 µM) | – | – | inhibit the proliferation of K562 cells via G2/M arrest
